Experiments:
Type in all cases: in vivo
[1] = tested on: Echinochloa crus-galli (ECHCG); assay: Biological Example 1 glasshouse screen, pre-emergence herbicidal activity; conditions: 312 h, application rate 250 g/ha, evaluated after 13 days, read-out: ECHCG percentage phytotoxicity
Method in brief: (§1)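 Read-out: visual percentage phytotoxicity at 13 days, 0% no damage to 100% total damage. Spray solution of unformulated compound in 50:50 acetone/water plus 0.5% Tween 20, applied to potted plants one day after sowing (pre) or after 8 days' growth (post).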

[2] = tested on: Alopecurus myosuroides (ALOMY); assay: as above; conditions: 312 h, application rate 250 g/ha, evaluated after 13 days, read-out: ALOMY percentage phytotoxicity
Method in brief: as §1

[3] = tested on: Echinochloa crus-galli (ECHCG); assay: Biological Example 1 glasshouse screen, post-emergence herbicidal activity; conditions: 312 h, application rate 250 g/ha, evaluated after 13 days, read-out: ECHCG percentage phytotoxicity
Method in brief: as §1

[4] = tested on: Alopecurus myosuroides (ALOMY); assay: as above; conditions: 312 h, application rate 250 g/ha, evaluated after 13 days, read-out: ALOMY percentage phytotoxicity
Method in brief: as §1

[5] = tested on: Lolium multiflorum (LOLMU); assay: Biological Example 4B (not-previously-formulated compounds) post-emergence herbicidal activity on grassy weeds; conditions: 14 DAA, technical compound in IF50 + Adigor, mean of two
Method: (§2) Seeds of a variety of test species are sown in standard soil in pots. After cultivation for 14 days under controlled conditions in a glasshouse (at 22/16°C., day/night; 16 hours light; 65% humidity), the plants are sprayed with an aqueous spray solution derived from the formulation of the technical active ingredient dissolved in acetone plus IF50 containing
(§3) 10.56 wt % Emulsogen™EL (castor oil ethoxylate, CAS Registry number 61791-12-6)
(§4) 42.22 wt % N-Methyl pyrrolidone
(§5) 42.22 wt % dipropylene glycol monoethyl ether
(§6) at a 1:20 ratio of (technical active ingredient:IF50). The adjuvant Adigor™(an adjuvant containing inter alia methylated rapeseed oil, e.g. available from Syngenta) is added to form a 0.5% v/v solution. The test plants are then grown on under controlled conditions in the glasshouse (at 22/16°C., day/night; 16 hours light; 65% humidity) and are watered twice daily. After 14 days the test is evaluated (100%=total damage to plant; 0%=no damage to plant).
(§7) Post-emergence herbicidal activity (phytotoxicity) data, on certain grassy monocotyledonous weeds and cereal crops in a glasshouse, are measured 14 days after application of the herbicide (14 DAA), for (a) a […] the same time as the herbicide, and (b) for a post-emergence application rate of 30 g/ha of the test herbicide with 50 g/ha of cloquintocet-mexyl safener applied at substantially the same time as the herbicide. Herbicidal activity (phytotoxicity) is evaluated visually, and an assessed percentage phytotoxicity score is given for each herbicidal application on each plant species (with 100%=total damage to plant; 0%=no damage to plant). Two repetitions are made for each experiment, and the mean herbicidal activity (phytotoxicity) data is reported.
(§8) Test plants: Avena fatua (AVEFA), Lolium multiflorum (LOLMU), Setaria viridis (SETVI), Poa annua (POAAN), Alopecurus myosuroides (ALOMY). All five of these are grassy monocotyledonous weeds.

[6] = tested on: Spring Barley “Harrington”; assay: Biological Example 4B post-emergence phytotoxicity on cereal crops; conditions: cloquintocet-mexyl 50 g/ha, 14 DAA, technical compound in IF50 + Adigor, mean of two
[7] = tested on: Winter Wheat “Hereward”; assay: as above; conditions: 14 DAA, technical compound in IF50 + Adigor, mean of two
Method: as §2, §3, §4, §5, §6
(§9) […] Herbicidal activity (phytotoxicity) is evaluated visually, and an assessed percentage phytotoxicity score is given for each herbicidal application on each plant species (with 100%=total damage to plant; 0%=no damage to plant). Two repetitions are made for each experiment, and the mean herbicidal activity (phytotoxicity) data is reported.

[8] = tested on: Winter Barley “Suzuka”; assay: as above; conditions: 14 DAA, technical compound in IF50 + Adigor, mean of two
Method: as §2, §3, §4, §5, §6, §9

[9] = tested on: Lolium perenne (LOLPE); assay: Biological Example 1 glasshouse screen, post-emergence herbicidal activity; conditions: 312 h, application rate 250 g/ha, evaluated after 13 days, read-out: LOLPE percentage phytotoxicity
Method in brief: (§10)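 Pots in a glasshouse (24/16°C day/night, 14 h light, 65% humidity) were sprayed one day after sowing (pre-emergence) or after 8 days (post-emergence), using acetone/water (50:50) with 0.5% Tween 20. Phytotoxicity was scored visually as % damage (0-100) 13 days after application.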

[10] = tested on: Avena fatua (AVEFA); assay: as above; conditions: 312 h, application rate 250 g/ha, evaluated after 13 days, read-out: AVEFA percentage phytotoxicity
Method in brief: as §10

[11] = tested on: Spring Wheat “Teal”; assay: Biological Example 4B post-emergence phytotoxicity on cereal crops; conditions: 14 DAA, technical compound in IF50 + Adigor, mean of two
Method: as §2, §3, §4, §5, §6, §7

[12] = tested on: Avena fatua (AVEFA); assay: Biological Example 4B (not-previously-formulated compounds) post-emergence herbicidal activity on grassy weeds; conditions: 14 DAA, technical compound in IF50 + Adigor, mean of two
Method: as §2, §3, §4, §5, §6, §9, §8

[13] = tested on: Poa annua (POAAN); assay: as above; conditions: 14 DAA, technical compound in IF50 + Adigor, mean of two
Method: as §2, §3, §4, §5, §6, §9, §8

[14] = tested on: Setaria viridis (SETVI); assay: as above; conditions: 14 DAA, technical compound in IF50 + Adigor, mean of two
Method: as §2, §3, §4, §5, §6, §9, §8

[15] = tested on: Alopecurus myosuroides (ALOMY); assay: as above; conditions: 14 DAA, technical compound in IF50 + Adigor, mean of two
Method: as §2, §3, §4, §5, §6, §9, §8

[16] = tested on: Lolium perenne (LOLPE); assay: Biological Example 1 glasshouse screen, pre-emergence herbicidal activity; conditions: 312 h, application rate 250 g/ha, evaluated after 13 days, read-out: LOLPE percentage phytotoxicity
Method in brief: as §10

[17] = tested on: Avena fatua (AVEFA); assay: as above; conditions: 312 h, application rate 250 g/ha, evaluated after 13 days, read-out: AVEFA percentage phytotoxicity
Method in brief: as §10

[18] = tested on: Spring Barley “Harrington”; assay: Biological Example 4B post-emergence phytotoxicity on cereal crops; conditions: 14 DAA, technical compound in IF50 + Adigor, mean of two
Method: as §2, §3, §4, §5, §6
Post-emergence herbicidal activity (phytotoxicity) data, on certain grassy monocotyledonous weeds and cereal crops in a glasshouse, are measured 14 days after application of the herbicide (14 DAA), for (a) a post-emergence application rate of 60 g/ha of the test herbicide with or without 50 g/ha of cloquintocet-mexyl safener applied at substantially the same time as the herbicide, and (b) for a post-emergence application rate of 30 g/ha of the test herbicide with 50 g/ha of cloquintocet-mexyl safener applied at substantially the same time as the herbicide. Herbicidal activity (phytotoxicity) is evaluated visually, and an assessed percentage phytotoxicity score is given for each herbicidal application on each plant species (with 100%=total damage to plant; 0%=no damage to plant). Two repetitions are made for each experiment, and the mean herbicidal activity (phytotoxicity) data is reported.

[19] = 7.5 g/ha, cloquintocet-mexyl 50 g/ha
[20] = 15 g/ha, cloquintocet-mexyl 50 g/ha
[21] = 30 g/ha, cloquintocet-mexyl 50 g/ha
[22] = 60 g/ha, cloquintocet-mexyl 0 g/ha
[23] = 60 g/ha, cloquintocet-mexyl 50 g/ha

CC#Cc1cc(C)c(C2C(=O)CC(Cc3ccccn3)C2=O)c(CC)c1 (centres unmarked) [Compound A-26]
pest or weed control at 250 g/ha [1]: 100% | pest or weed control at 250 g/ha [2]: 100% | pest or weed control at 250 g/ha [3]: 100% | pest or weed control at 250 g/ha [4]: 100% | LOLMU % phytotoxicity [5, 19]: 90% | LOLMU % phytotoxicity [5, 20]: 100% | LOLMU % phytotoxicity [5, 21]: 100% | LOLMU % phytotoxicity [5, 22]: 100% | LOLMU % phytotoxicity [5, 23]: 100% | Spring Barley “Harrington” phytotoxicity (%) ([6]; 7.5 g/ha): 10% | Spring Barley “Harrington” phytotoxicity (%) ([6]; 15 g/ha): 80% | Winter Wheat “Hereward” phytotoxicity (%) [7, 19]: 30% | Winter Wheat “Hereward” phytotoxicity (%) [7, 20]: 80% | Winter Wheat “Hereward” phytotoxicity (%) [7, 21]: 90% | Winter Wheat “Hereward” phytotoxicity (%) [7, 22]: 99% | Winter Wheat “Hereward” phytotoxicity (%) [7, 23]: 98% | Winter Barley “Suzuka” phytotoxicity (%) [8, 19]: 4% | Winter Barley “Suzuka” phytotoxicity (%) [8, 20]: 53% | Winter Barley “Suzuka” phytotoxicity (%) [8, 21]: 100% | Winter Barley “Suzuka” phytotoxicity (%) [8, 22]: 100% | Winter Barley “Suzuka” phytotoxicity (%) [8, 23]: 100% | pest or weed control at 250 g/ha [9]: 100% | pest or weed control at 250 g/ha [10]: 100% | Spring Wheat “Teal” phytotoxicity (%) [11, 19]: 23% | Spring Wheat “Teal” phytotoxicity (%) [11, 20]: 78% | Spring Wheat “Teal” phytotoxicity (%) [11, 21]: 93% | Spring Wheat “Teal” phytotoxicity (%) [11, 22]: 100% | Spring Wheat “Teal” phytotoxicity (%) [11, 23]: 97% | AVEFA % phytotoxicity [12, 19]: 83% | AVEFA % phytotoxicity [12, 20]: 99% | AVEFA % phytotoxicity [12, 21]: 100% | AVEFA % phytotoxicity [12, 22]: 100% | AVEFA % phytotoxicity [12, 23]: 100% | POAAN % phytotoxicity [13, 19]: 0% | POAAN % phytotoxicity [13, 20]: 13% | POAAN % phytotoxicity [13, 21]: 33% | POAAN % phytotoxicity [13, 22]: 73% | POAAN % phytotoxicity [13, 23]: 70% | SETVI % phytotoxicity [14, 19]: 68% | SETVI % phytotoxicity [14, 20]: 95% | SETVI % phytotoxicity [14, 21]: 100% | SETVI % phytotoxicity [14, 22]: 100% | SETVI % phytotoxicity [14, 23]: 100% | ALOMY % phytotoxicity [15, 19]: 97% | ALOMY % phytotoxicity [15, 20]: 99% | ALOMY % phytotoxicity [15, 21]: 100% | ALOMY % phytotoxicity [15, 22]: 100% | ALOMY % phytotoxicity [15, 23]: 100% | pest or weed control at 250 g/ha [16]: 100% | pest or weed control at 250 g/ha [17]: 100% | Spring Barley “Harrington” phytotoxicity (%) [18, 21]: 99% | Spring Barley “Harrington” phytotoxicity (%) [18, 22]: 100% | Spring Barley “Harrington” phytotoxicity (%) [18, 23]: 100%
